Measured values as given in patent publication US20220339143A1, “TAK-925 FOR USE IN TREATING NARCOLEPSY” (Takeda Pharmaceutical Company Limited, priority 2019, published 2022).
Like-named read-outs stand apart in the source and are kept apart here.

Assay: Single dose PK in healthy subjects (Cohorts 1, 2, S1 and S2), plasma
Type: in vivo, human
Details: human, plasma, iv, healthy subjects
Method: This study investigates (i) the safety and tolerability of Compound A (methyl (2R,3S)-3-((methylsulfonyl)amino)-2-(((cis-4-phenylcyclohexyl)oxy)methyl)piperidine-1-carboxylate) when a single dose given as a 9 hour continuous IV infusion is administered to healthy adults, healthy elderly subjects and patients with narcolepsy type 1 (NT1); (ii) the pharmacokinetics of Compound A when a single dose given as a 9 hour continuous IV infusion is administered to healthy adults, healthy elderly subjects and patients with narcolepsy type 1; and (iii) the pharmacodynamics (PD) effects of Compound A, primarily by evaluation of the sleep latency on MWT when a single dose given as a 9 hour continuous IV infusion is administered to patients with narcolepsy type 1.
Pharmacokinetics: Concentrations of Compound A in plasma, and CSF, and pharmacokinetics parameters.
On average, the time to reach the plateau appeared to be approximately 3 to 4 hours after the start of infusion. […] After switching off the IV infusion, Compound A plasma concentrations declined rapidly and in a biphasic manner with a mean terminal disposition phase t1/2z ranging approximately from 3.4 to 5.1 hours across all doses. […] Table 5 provides a summary of plasma concentrations of Compound A after a single IV infusion in healthy subjects. Table 6 provides a summary of pharmacokinetic parameters of Compound A after a single IV infusion in healthy subjects.

COC(=O)N1CCC[C@H](NS(C)(=O)=O)[C@@H]1CO[C@H]1CC[C@@H](c2ccccc2)CC1 [Compound A, methyl (2R,3S)-3-((methylsulfonyl)amino)-2-(((cis-4-phenylcyclohexyl)oxy)methyl)piperidine-1-carboxylate]
AUC(0-inf) (14 mg, 14 mg single IV infusion, read-out: AUCinf Median): 322 ng·h/mL | AUC(0-t) (14 mg, 14 mg single IV infusion, read-out: AUClast Geo Mean): 323 ng·h/mL | AUC(0-t) (14 mg, 14 mg single IV infusion, read-out: AUClast Mean): 326 ng·h/mL | AUC(0-t) (14 mg, 14 mg single IV infusion, read-out: AUClast Median): 322 ng·h/mL | clearance (14 mg, 14 mg single IV infusion, read-out: CL Mean (converted)): 718 mL/min | clearance (14 mg, 14 mg single IV infusion, read-out: CL Median (converted)): 723 mL/min | concentration at 9 h (14 mg, 14 mg single IV infusion, read-out: Ceoi Geo Mean): 29.8 ng/mL | concentration at 9 h (14 mg, 14 mg single IV infusion, read-out: Ceoi Mean): 30.1 ng/mL | concentration at 9 h (14 mg, 14 mg single IV infusion, read-out: Ceoi Median): 30.8 ng/mL | Cmax (14 mg, 14 mg single IV infusion, read-out: Cmax Geo Mean): 36.8 ng/mL | Cmax (14 mg, 14 mg single IV infusion, read-out: Cmax Mean): 37 ng/mL | Cmax (14 mg, 14 mg single IV infusion, read-out: Cmax Median): 37 ng/mL | Vd (14 mg, 14 mg single IV infusion, read-out: Vss Mean): 77.1 L | Vd (14 mg, 14 mg single IV infusion, read-out: Vss Median): 72.7 L | Vd (14 mg, 14 mg single IV infusion, read-out: Vz Mean): 272 L | Vd (14 mg, 14 mg single IV infusion, read-out: Vz Median): 253 L | Tmax (14 mg, 14 mg single IV infusion, read-out: tmax Mean): 3.67 h | Tmax (14 mg, 14 mg single IV infusion, read-out: tmax Median): 4 h | AUC (28 mg, 28 mg single IV infusion, read-out: AUC24 Geo Mean): 513 ng·h/mL | AUC (28 mg, 28 mg single IV infusion, read-out: AUC24 Mean): 519 ng·h/mL | AUC (28 mg, 28 mg single IV infusion, read-out: AUC24 Median): 543 ng·h/mL | AUC(0-inf) (28 mg, 28 mg single IV infusion, read-out: AUCinf Geo Mean): 524 ng·h/mL | AUC(0-inf) (28 mg, 28 mg single IV infusion, read-out: AUCinf Mean): 530 ng·h/mL | AUC(0-inf) (28 mg, 28 mg single IV infusion, read-out: AUCinf Median): 549 ng·h/mL | AUC(0-t) (28 mg, 28 mg single IV infusion, read-out: AUClast Geo Mean): 513 ng·h/mL | AUC(0-t) (28 mg, 28 mg single IV infusion, read-out: AUClast Mean): 519 ng·h/mL | AUC(0-t) (28 mg, 28 mg single IV infusion, read-out: AUClast Median): 543 ng·h/mL | clearance (28 mg, 28 mg single IV infusion, read-out: CL Mean (converted)): 903 mL/min | clearance (28 mg, 28 mg single IV infusion, read-out: CL Median (converted)): 850 mL/min | concentration at 9 h (28 mg, 28 mg single IV infusion, read-out: Ceoi Geo Mean): 52.1 ng/mL | concentration at 9 h (28 mg, 28 mg single IV infusion, read-out: Ceoi Mean): 52.5 ng/mL | concentration at 9 h (28 mg, 28 mg single IV infusion, read-out: Ceoi Median): 55.3 ng/mL | Cmax (28 mg, 28 mg single IV infusion, read-out: Cmax Geo Mean): 57.6 ng/mL | Cmax (28 mg, 28 mg single IV infusion, read-out: Cmax Mean): 58.1 ng/mL | Cmax (28 mg, 28 mg single IV infusion, read-out: Cmax Median): 59.3 ng/mL | Vd (28 mg, 28 mg single IV infusion, read-out: Vss Mean): 116 L | Vd (28 mg, 28 mg single IV infusion, read-out: Vss Median): 105 L | Vd (28 mg, 28 mg single IV infusion, read-out: Vz Mean): 392 L | Vd (28 mg, 28 mg single IV infusion, read-out: Vz Median): 406 L | Tmax (28 mg, 28 mg single IV infusion, read-out: tmax Mean): 3 h | Tmax (28 mg, 28 mg single IV infusion, read-out: tmax Median): 3 h | AUC (56 mg, 56 mg single IV infusion, read-out: AUC24 Geo Mean): 1060 ng·h/mL | AUC (56 mg, 56 mg single IV infusion, read-out: AUC24 Mean): 1070 ng·h/mL | AUC (56 mg, 56 mg single IV infusion, read-out: AUC24 Median): 1040 ng·h/mL | AUC(0-inf) (56 mg, 56 mg single IV infusion, read-out: AUCinf Geo Mean): 1060 ng·h/mL | AUC(0-inf) (56 mg, 56 mg single IV infusion, read-out: AUCinf Mean): 1080 ng·h/mL | AUC(0-inf) (56 mg, 56 mg single IV infusion, read-out: AUCinf Median): 1050 ng·h/mL | AUC(0-t) (56 mg, 56 mg single IV infusion, read-out: AUClast Geo Mean): 1060 ng·h/mL | AUC(0-t) (56 mg, 56 mg single IV infusion, read-out: AUClast Mean): 1070 ng·h/mL | AUC(0-t) (56 mg, 56 mg single IV infusion, read-out: AUClast Median): 1040 ng·h/mL | clearance (56 mg, 56 mg single IV infusion, read-out: CL Mean (converted)): 885 mL/min | clearance (56 mg, 56 mg single IV infusion, read-out: CL Median (converted)): 891 mL/min | concentration at 9 h (56 mg, 56 mg single IV infusion, read-out: Ceoi Geo Mean): 115 ng/mL | concentration at 9 h (56 mg, 56 mg single IV infusion, read-out: Ceoi Mean): 115 ng/mL | concentration at 9 h (56 mg, 56 mg single IV infusion, read-out: Ceoi Median): 112 ng/mL | Cmax (56 mg, 56 mg single IV infusion, read-out: Cmax Geo Mean): 123 ng/mL | Cmax (56 mg, 56 mg single IV infusion, read-out: Cmax Mean): 123 ng/mL | Cmax (56 mg, 56 mg single IV infusion, read-out: Cmax Median): 122 ng/mL | Vd (56 mg, 56 mg single IV infusion, read-out: Vss Mean): 91.4 L | Vd (56 mg, 56 mg single IV infusion, read-out: Vss Median): 89.1 L | Vd (56 mg, 56 mg single IV infusion, read-out: Vz Mean): 291 L | Vd (56 mg, 56 mg single IV infusion, read-out: Vz Median): 282 L | Tmax (56 mg, 56 mg single IV infusion, read-out: tmax Mean): 4.5 h | Tmax (56 mg, 56 mg single IV infusion, read-out: tmax Median): 4 h | AUC (112 mg, 112 mg single IV infusion, read-out: AUC24 Geo Mean): 2070 ng·h/mL | AUC (112 mg, 112 mg single IV infusion, read-out: AUC24 Mean): 2090 ng·h/mL | AUC (112 mg, 112 mg single IV infusion, read-out: AUC24 Median): 2130 ng·h/mL | AUC(0-inf) (112 mg, 112 mg single IV infusion, read-out: AUCinf Geo Mean): 2090 ng·h/mL | AUC(0-inf) (112 mg, 112 mg single IV infusion, read-out: AUCinf Mean): 2110 ng·h/mL | AUC(0-inf) (112 mg, 112 mg single IV infusion, read-out: AUCinf Median): 2160 ng·h/mL | AUC(0-t) (112 mg, 112 mg single IV infusion, read-out: AUClast Geo Mean): 2070 ng·h/mL | AUC(0-t) (112 mg, 112 mg single IV infusion, read-out: AUClast Mean): 2090 ng·h/mL | AUC(0-t) (112 mg, 112 mg single IV infusion, read-out: AUClast Median): 2130 ng·h/mL | clearance (112 mg, 112 mg single IV infusion, read-out: CL Mean (converted)): 902 mL/min | clearance (112 mg, 112 mg single IV infusion, read-out: CL Median (converted)): 867 mL/min | concentration at 9 h (112 mg, 112 mg single IV infusion, read-out: Ceoi Geo Mean): 214 ng/mL | concentration at 9 h (112 mg, 112 mg single IV infusion, read-out: Ceoi Mean): 216 ng/mL | concentration at 9 h (112 mg, 112 mg single IV infusion, read-out: Ceoi Median): 221 ng/mL | Cmax (112 mg, 112 mg single IV infusion, read-out: Cmax Geo Mean): 235 ng/mL | Cmax (112 mg, 112 mg single IV infusion, read-out: Cmax Mean): 238 ng/mL | Cmax (112 mg, 112 mg single IV infusion, read-out: Cmax Median): 250 ng/mL | Vd (112 mg, 112 mg single IV infusion, read-out: Vss Mean): 97.8 L | Vd (112 mg, 112 mg single IV infusion, read-out: Vss Median): 104 L | Vd (112 mg, 112 mg single IV infusion, read-out: Vz Mean): 289 L | Vd (112 mg, 112 mg single IV infusion, read-out: Vz Median): 301 L | Tmax (112 mg, 112 mg single IV infusion, read-out: tmax Mean): 4.25 h | Tmax (112 mg, 112 mg single IV infusion, read-out: tmax Median): 4 h | AUC (134.4 mg, 134.4 mg single IV infusion, read-out: AUC24 Geo Mean): 2660 ng·h/mL | AUC (134.4 mg, 134.4 mg single IV infusion, read-out: AUC24 Mean): 2690 ng·h/mL | AUC (134.4 mg, 134.4 mg single IV infusion, read-out: AUC24 Median): 2670 ng·h/mL | AUC(0-inf) (134.4 mg, 134.4 mg single IV infusion, read-out: AUCinf Geo Mean): 2680 ng·h/mL | AUC(0-inf) (134.4 mg, 134.4 mg single IV infusion, read-out: AUCinf Mean): 2720 ng·h/mL | AUC(0-inf) (134.4 mg, 134.4 mg single IV infusion, read-out: AUCinf Median): 2680 ng·h/mL | AUC(0-t) (134.4 mg, 134.4 mg single IV infusion, read-out: AUClast Geo Mean): 2660 ng·h/mL | AUC(0-t) (134.4 mg, 134.4 mg single IV infusion, read-out: AUClast Mean): 2690 ng·h/mL | AUC(0-t) (134.4 mg, 134.4 mg single IV infusion, read-out: AUClast Median): 2670 ng·h/mL | clearance (134.4 mg, 134.4 mg single IV infusion, read-out: CL Mean (converted)): 848 mL/min | clearance (134.4 mg, 134.4 mg single IV infusion, read-out: CL Median (converted)): 839 mL/min | concentration at 9 h (134.4 mg, 134.4 mg single IV infusion, read-out: Ceoi Geo Mean): 290 ng/mL | concentration at 9 h (134.4 mg, 134.4 mg single IV infusion, read-out: Ceoi Mean): 292 ng/mL | concentration at 9 h (134.4 mg, 134.4 mg single IV infusion, read-out: Ceoi Median): 300 ng/mL
